Patent US11008572B2, “Methods and compositions for modulating splicing” (SKYHAWK THERAPEUTICS, INC., priority 2017, dated 2021)
pIC50: −log10 of the molar value. Like-named read-outs stand apart in the source and are kept apart here.

Key:
A-673 cells = assay: Cell viability, crystal violet staining; type: cell-based
Summary of the method: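 Readout is absorbance at 570 nm of crystal violet, taken up in 0.1 M sodium citrate in 50% ethanol after staining with 0.5% dye in 25% methanol. Plates held 5×10^3 cells per well, and compounds were added one day after seeding for 72 hours. Data are relative to vehicle, mean±SE.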

[1] = test system: FOXM1^A2 mRNA and FOXM1^BC mRNA; assay: Splicing assay (FOXM1), qPCR of isoform mRNAs; type: cell-based; conditions: for IC50: FoxM1 BC mRNA decrease (exon included); for pIC50: table does not say EC50 or IC50, read-out: FOXM1
Procedure: Various cells lines were treated with the SMSMs described herein. RNA was then isolated, cDNA synthesized, qPCR performed and the levels of various mRNA targets of the SMSMs were determined. In some instances, RNA was isolated, cDNA synthesized, qPCR performed and the levels of mRNA isoforms in the various cell samples were determined.
On the day of the experiment, a 96-well plate was seeded with the cell lines of interest. The cells were diluted with full growth media to a concentration of 2.0×10^5 cells/mL and 100 μL of cells were added to each well (20,000 cells per well). The cells were treated with a compound immediately after plating.
The compounds were then added to the cell plate using the HP compound dispenser. In the initial experiment, a top concentration of 10 μM and an 8 point 4-fold dilution scheme was used. The stock compounds were made at a concentration of 5 mM, and the DMSO concentration was set to 0.2%. DMSO was used to normalize all the compound-containing wells and the untreated cells.
The treated cells were incubated at 37° C. in a 5% CO2 incubator for the desired amount of time. Plates were placed in a plastic bag with a wet paper towel to prevent evaporation.
RNA was isolated using the Cells to CT kit (ThermoFisher, AM1728). The cells were washed once with 100 μL cold PBS. 50 μL of lysis buffer was added to each well/tube (49.5 μL lysis buffer+0.5 μL DNase I per well/tube). The lysis reaction was mixed and incubated at room temperature for 5 minutes. 5 μL of stop solution was added directly into each cell lysis reaction and mixed by pipetting up and down 5 times. The plates/tubes were incubated at room temperature for 2 minutes then placed on ice if the cDNA synthesis was to be performed immediately. Otherwise, the plates/tubes were stored at −80° C. cDNA synthesis reactions were then performed. Reverse Transcription (RT) Master mix was prepared according to the table below.
40 μL RT master mix was added to PCR tubes or plate wells. 10 μL of RNA was added to each tube/well. The RT thermal cycler program was then run and tubes or plate wells were incubated at 37° C. for 1 hour, then at 95° C. for 5 minutes to deactivate the enzyme.
The qPCR was performed using a QuantStudio 6 instrument (ThermoFisher) and the following cycling conditions and according to the tables below. All samples and standards were analyzed in triplicate. Cycle 1: 2 minutes at 50° C. Cycle 2: 10 minutes at 95° C. Cycle 3 (repeat 40 times): 15 seconds at 95° C., 1 minute at 60° C.
The determined isoform 2and isoform 1quantities were then be used to determine the isoform 2: […] at the various compound concentrations. The PPIA quantities were used in the normalization to account of cell proliferation effects of the compounds.
The dilution necessary to make the top standard is calculated. A top concentration 200,000,000 copies/μL of the stock plasmid was prepared in TE buffer. A series of 10-fold dilutions, also in TE, were then made. A total of 5 μL of each standard was used in a qPCR well to generate samples containing 109 copies, […], 10^7copies, 10^6 copies, 10^5 copies, 10^4 copies, 10^3 copies, 10^2 copies, 10^1copies, and 0 copies.
An assay to measure the FOXM1^A2 mRNA and FOXM1^BC mRNA, or MADD^WT (isoform 4) mRNA and MADD^Ex16 (isoform 3) mRNA, or MAPTau^4R mRNA and MAPTau^3R mRNA simultaneously in cell wells was performed. The RNA values were measured relative to DMSO control and also included a housekeeping gene, PPIA to ensure data was consistent. The mRNA values were measured after 24 hours of incubation with the SMSM compounds.

[2] = Homo sapiens, A673, cell viability, read-out: A-673 IC50 (nM) Cell viability
[3] = read-out: Splice IC50 (nM) FoxM1 BC mRNA decrease (exon included)
[4] = read-out: Splice EC50 (nM) FoxM1 A mRNA increase (exon excluded)
[5] = Homo sapiens, A673, cell viability, read-out: A-673 IC50 (nM), Cell viability
[6] = Homo sapiens, A673, cell viability, read-out: A-673 IC50 (nM), cell viability

Molecule | IC50 (A-673 cells; [2]) [nM] | IC50 [1, 3] [nM] | EC50 [1, 4] [nM] | IC50 (A-673 cells; [5]) [nM] | also measured
2-(6-(((1R,3s,5S)-8-azabicyclo[3.2.1]octan-3-yl)oxy)pyridazin-3-yl)-5-(1H-1,2,3-triazol-4-yl)phenol [compound 253] |  |  |  |  | IC50 (A-673 cells; cell viability, read-out: A-673 IC50 (nM), Cell viability): 501 to 1000 nM; EC50 ([1]; FoxM1 A mRNA increase (exon excluded), 0.1-1000 nM, 24 hours, read-out: Splice EC50 (nM), FoxM1 A mRNA increase (exon excluded)): 251 to 500 nM; IC50 ([1]; 0.1-1000 nM, 24 hours, read-out: Splice IC50 (nM), FoxM1 BC mRNA decrease (exon included)): 251 to 500 nM
CC1(C)CC(N(c2ccc(-c3ccc(-c4cn[nH]c4)cc3O)nn2)C2CC2)CC(C)(C)N1 [compound 129, 2-(6-(cyclopropyl(2,2,6,6-tetramethylpiperidin-4-yl)amino)pyridazin-3-yl)-5-(1H-pyrazol-4-yl)phenol] | 251 to 500 |  |  |  | pIC50 ([1]; 24 h, LP-LoVo cells, 24 hours): 8.00 to 9.00; pIC50 ([1]; 24 h, MDA-MB-231-luc cells, 24 hours): > 9.00; pIC50 ([1]; Homo sapiens, A673, 24 h, A-673 cells, 24 hours): > 9.00; pIC50 ([1]; Homo sapiens, A-375, 24 h, A-375 cells, 24 hours): > 9.00; pIC50 ([1]; Homo sapiens, MDA-MB-157, 24 h, MDA-MB-157 cells, 24 hours): > 9.00; pIC50 ([1]; Homo sapiens, SK-OV-3, 24 h, SKOV3 cells, 24 hours): 8.00 to 9.00; pIC50 ([1]; Homo sapiens, Z-138, 24 h, Z-138 cells, 24 hours): > 9.00
CC1(C)CC(N(c2ccc(-c3ccc(-c4cn[nH]c4)cc3O)nn2)C2CCC2)CC(C)(C)N1 [compound 130, 2-(6-(cyclobutyl(2,2,6,6-tetramethylpiperidin-4-yl)amino)pyridazin-3-yl)-5-(1H-pyrazol-4-yl)phenol] | > 1000 | > 1000 | > 1000 |  | 
Oc1cc(-c2cn[nH]c2)ccc1-c1ccc(N2CCC3CNCCC32)nn1 (centres unmarked) [compound 131, 2-(6-(octahydro-1H-pyrrolo[3,2-c]pyridin-1-yl)pyridazin-3-yl)-5-(1H-pyrazol-4-yl)phenol] | > 1000 | 251 to 500 | 101 to 250 |  | 
COCCN(c1ccc(-c2ccc(-c3cn[nH]c3)cc2O)nn1)C1CC(C)(C)NC(C)(C)C1 [compound 133, 2-(6-((2-methoxyethyl)(2,2,6,6-tetramethylpiperidin-4-yl)amino)pyridazin-3-yl)-5-(1H-pyrazol-4-yl)phenol] | > 1000 | > 1000 | 501 to 1000 |  | 
CN(c1cnc(-c2ccc(-c3cn[nH]c3)cc2O)nc1)C1CC(C)(C)NC(C)(C)C1 [compound 134, 2-(5-(methyl(2,2,6,6-tetramethylpiperidin-4-yl)amino)pyrimidin-2-yl)-5-(1H-pyrazol-4-yl)phenol] | > 1000 | > 1000 | > 1000 |  | 
CN(c1ccc(-c2ccc(-c3cn[nH]c3)cc2O)nc1)C1CC(C)(C)NC(C)(C)C1 [compound 135, 2-(5-(methyl(2,2,6,6-tetramethylpiperidin-4-yl)amino)pyridin-2-yl)-5-(1H-pyrazol-4-yl)phenol] | > 1000 | > 1000 | > 1000 |  | 
CN(c1cnc(-c2ccc(-c3cn[nH]c3)cc2O)cn1)C1CC(C)(C)NC(C)(C)C1 [compound 136, 2-(5-(methyl(2,2,6,6-tetramethylpiperidin-4-yl)amino)pyrazin-2-yl)-5-(1H-pyrazol-4-yl)phenol] | 501 to 1000 | 251 to 500 | 101 to 250 |  | 
CN(c1ccc(-c2ccc(-c3cn[nH]c3)cc2O)nn1)[C@H]1[C@@H]2CNC[C@@H]21 [compound 137, 2-(6-(((1R,5S,6s)-3-azabicyclo[3.1.0]hexan-6-yl)(methyl)amino)pyridazin-3-yl)-5-(1H-pyrazol-4-yl)phenol] | > 1000 | > 1000 | > 1000 |  | 
CN(c1ccc(-c2ccc(-c3cn[nH]c3)cc2O)nn1)[C@H]1C[C@H]2CC[C@@H](C1)N2 [compound 139, 2-(6-(((1R,3r,5S)-8-azabicyclo[3.2.1]octan-3-yl)(methyl)amino)pyridazin-3-yl)-5-(1H-pyrazol-4-yl)phenol] | > 1000 | > 1000 | > 1000 |  | 
CN(c1ccc(-c2cc3cc(C(=O)NC4CC4)oc3cc2O)nn1)[C@@H]1C[C@H]2CCC[C@@H](C1)N2 [compound 299, 5-(6-(((1R,3s,5S)-9-azabicyclo[3.3.1]nonan-3-yl)(methyl)amino)pyridazin-3-yl)-N-cyclopropyl-6-hydroxybenzofuran-2-carboxamide] |  |  |  | 10 to 100 | 
CN(c1ccc(-c2ccc(-c3cc(=O)n(C)cn3)cc2O)nn1)[C@@H]1C[C@H]2CCC[C@@H](C1)N2 [compound 300, 6-(4-(6-(((2R,3s,5S)-9-azabicyclo[3.3.1]nonan-3-yl)(methyl)amino)pyridazin-3-yl)-3-hydroxyphenyl)-3-methylpyrimidin-4(3H)-one] |  |  |  | 10 to 100 | 
CN(c1ccc(-c2ccc(-c3cnn(C(F)F)c3)cc2O)nn1)[C@@H]1C[C@H]2CCC[C@@H](C1)N2 [compound 301, 2-(6-(((1R,3s,5S)-9-azabicyclo[3.3.1]nonan-3-yl)(methyl)amino)pyridazin-3-yl)-5-(1-(difluoromethyl)-1H-pyrazol-4-yl)phenol] |  |  |  | 10 to 100 | 
C[C@]12CC[C@](C)(C[C@@H](N(c3ccc(-c4ccc(-c5cn[nH]c5)cc4O)nn3)C3CC3)C1)N2 [compound 302, 2-(6-(cyclopropyl((1R,3s,5S)-1,5-dimethyl-8-azabicyclo[3.2.1]octan-3-yl)amino)pyridazin-3-yl)-5-(1H-pyrazol-4-yl)phenol] |  |  |  | 10 to 100 | 
[2H]C([2H])([2H])c1ncc(-c2ccc(-c3ccc(N(C)[C@H]4C[C@]5(C)CC[C@](C)(C4)N5)nn3)c(O)c2)o1 [compound 303, 2-(6-(((1R,3s,5S)-1,5-dimethyl-8-azabicyclo[3.2.1]octan-3-yl)(methyl)amino)pyridazin-3-yl)-5-(2-(methyl-d3)oxazol-5-yl)phenol] |  |  |  | 10 to 100 | 
CN(c1ccc(-c2ccc(-c3ccn(C)c(=O)n3)cc2O)nn1)[C@H]1C[C@]2(C)CCC[C@](C)(C1)N2 [compound 305, 4-(4-(6-(((1R,3s,5S)-1,5-dimethyl-9-azabicyclo[3.3.1]nonan-3-yl)(methyl)amino)pyridazin-3-yl)-3-hydroxyphenyl)-1-methylpyrimidin-2(1H)-one] |  |  |  | 101 to 250 | 
CN(c1ccc(-c2ccc(-c3cc[nH]c(=O)c3)cc2O)nn1)[C@H]1C[C@]2(C)CCC[C@](C)(C1)N2 [compound 306, 4-(4-(6-(((1R,3s,5S)-1,5-dimethyl-9-azabicyclo[3.3.1]nonan-3-yl)(methyl)amino)pyridazin-3-yl)-3-hydroxyphenyl)pyridin-2(1H)-one] |  |  |  |  | IC50 (A-673 cells; [6]): < 10 nM; pIC50 (A-673 cells; Homo sapiens, A673, read-out: A-673 cell viability (IC50)): > 8.52
CN(c1ccc(-c2ccc(-c3ccnc(OC(F)F)c3)cc2O)nn1)[C@H]1C[C@]2(C)CCC[C@](C)(C1)N2 [compound 308, 5-(2-(difluoromethoxy)pyridin-4-yl)-2-(6-(((1R,3s,5S)-1,5-dimethyl-9-azabicyclo[3.3.1]nonan-3-yl)(methyl)amino)pyridazin-3-yl)phenol] |  |  |  |  | IC50 (A-673 cells; [6]): 501 to 1000 nM
